Assay results from US20060183786A1, “Injectable long-acting analgesic composition comprising an ester derivative of ketorolac” (CHI MEI FOUNDATION HOSPITAL, priority 2005, published 2006).
≈ marks a conversion by molar mass, not a printed value.

Legend:
[1] = system: rats intraplantarly injected with carrageenin; test: Paw pressure test (pain threshold of paw), analgesic effect after intramuscular injection; assay type: in vivo, Sprague-Dawley rats
Description: Louis, Mo., USA) was injected subcutaneously into the plantar space of the right hind paw of all rats. Intraplantar injections were made with a Hamilton syringe and a 30-gauge hypodermic needle. The needle was inserted into the pad region of the glabrous skin and moved 6-8 mm proximal toward the tarsal region. • (5) Measurements of the pain threshold values of rat paw: Paw pressure test was conducted using the TSE Analgesia System (TSE Technical & Scientific Equipment GmbH; Bad Homburg, Germany). The TSE Analgesia System is designed to perform rapid and accurate screening of analgesic drug candidates on the normal and inflamed paw of small laboratory animals, according to the Randall-Selitto method. The data can be measured and recorded by a control unit and a computer system connected thereto. The animal's paw is placed on a plinth and is applied with an increasing pressure generated from the tip of a sensor. The applied pressure is measured. The sensor is made from smooth plastic to prevent the paw from being injured when the animal withdraws its paw suddenly. To start the test, a foot switch is pressed and the sensor is lowered rapidly until it contacts the rat's paw. Thereafter, the sensor is lowered in small steps until the pain threshold is reached, at which time the tested animal (rat) starts to move vigorously and tries to withdraw its paw. The foot switch is then released and the sensor is raised. The value of the applied pressure measured at the pain threshold is shown on the display and simultaneously delivered to the computer system, which is installed with a software system capable of transferring the measured data into Excel format, which can be used as a basis for further evaluation, e.g., statistics. The TSE Analgesia system is suitable for rats, mice and other small laboratory animals. […] To prevent tissue damage, a cutoff pressure of 350 gm was set. […] In order to keep a similar condition of carrageenin-induced paw edema and pain at each testing day, this 4-day study was accomplished by conducting four one-day studies consecutively (i.e. from day 1 to day 4). All rats received only one intramuscular injection of either ketorolac propyl ester ([…], […]) or the vehicle ([…]) at the start of study (day 1) and then (1 minute later) received intraplantar injection of carrageenin at either day 1, 2, 3, or day 4. Each rat received only one injection of carrageenin. […] A three-way analysis of variance with one-way repeated method was used to compare the differences between groups. The Bonferroni test was used as a post-hoc test to compare the differences between the medication groups and the vehicle group at each time point. […] (“*” means P<0.05 whereas “+” means P<0.01 when compared with the vehicle group). The three-way analysis of variance with one-way repeated method is a powerful statistical method which can be used to evaluate the differences among groups. […] A 4-day study was carried out. […] All rats received only one intramuscular injection of a tested analgesic drug (ketorolac or a ketorolac ester derivative, […]) or the vehicle ([…]) at the start of study (day 1) and then received intraplantar injection of carrageenin at either day 1, 2, 3, or day 4. Each rat received only one injection of carrageenin.

Solubility in sesame oil = assay type: physicochemical
[2] = system: rats intraplantarly injected with carrageenin; test: Paw swelling (paw thickness), anti-inflammatory effect after intramuscular injection; assay type: in vivo, Sprague-Dawley rats
Description: Louis, Mo., USA) was injected subcutaneously into the plantar space of the right hind paw of all rats. Intraplantar injections were made with a Hamilton syringe and a 30-gauge hypodermic needle. The needle was inserted into the pad region of the glabrous skin and moved 6-8 mm proximal toward the tarsal region. • (5) Measurements of the pain threshold values of rat paw: Paw pressure test was conducted using the TSE Analgesia System (TSE Technical & Scientific Equipment GmbH; Bad Homburg, Germany). […] Paw thickness was measured immediately prior to and following carrageenin injection. […] A two-way analysis of variance with one-way repeated method was used to compare the differences between groups. The Bonferroni test was used as a post-hoc test to compare the differences between the medication groups and the vehicle group at each time point. […] (“*” means P<0.05 whereas “+” means P<0.01 when compared with the vehicle group). The two-way analysis of variance with one-way repeated method is a powerful statistical method which can be used to evaluate the differences among groups. […] In order to keep a similar condition of carrageenin-induced paw edema and pain at each testing day, this 4-day study was accomplished by conducting four one-day studies consecutively (i.e. from day 1 to day 4). All rats received only one intramuscular injection of either ketorolac propyl ester (80, 160, or 240 μmole/Kg, prepared in sesame oil) or the vehicle (sesame oil only) at the start of study (day 1) and then (1 minute later) received intraplantar injection of carrageenin at either day 1, 2, 3, or day 4. Each rat received only one injection of carrageenin. […] A three-way analysis of variance with one-way repeated method was used to compare the differences between groups. The Bonferroni test was used as a post-hoc test to compare the differences between the medication groups and the vehicle group at each time point. […] (“*” means P<0.05 whereas “+” means P<0.01 when compared with the vehicle group). The three-way analysis of variance with one-way repeated method is a powerful statistical method which can be used to evaluate the differences among groups. […] A 4-day study was carried out. […] All rats received only one intramuscular injection of a tested analgesic drug (ketorolac or a ketorolac ester derivative, prepared in sesame oil) or the vehicle (sesame oil only) at the start of study (day 1) and then received intraplantar injection of carrageenin at either day 1, 2, 3, or day 4. Each rat received only one injection of carrageenin. […] All rats received only one intramuscular injection of either a tested analgesic drug (ketorolac propyl ester prepared in four different oils) or the vehicle (4 different oils) at the start of study (day 1) and then received intraplantar injection of carrageenin at either day 1, 2, 3, or day 4. Each rat received only one injection of carrageenin.

[3] = cited from earlier work
[4] = parenteral, n>20,000; cited from earlier work
[5] = cited from earlier work; remark: listed apart in the source
[6] = human serum, compared with KEE; cited from earlier work
[7] = human cadaver skin, compared with KEE; cited from earlier work
[8] = cited from earlier work; remark: listed apart in the source
[9] = system: rats intraplantarly injected with carrageenin; test: Paw swelling (paw thickness), anti-inflammatory effect after intramuscular injection; assay type: in vivo, Sprague-Dawley rats; settings: for Anti-inflammatory duration (h): in water
[10] = 30 mg (=80 μmole) given to an adult, clinical practice; cited from earlier work
[11] = compared with commercially available ketorolac (trometamole salt); cited from earlier work
[12] = 240 μmole/Kg intramuscular, oil suspension in sesame oil
[13] = 240 μmole/Kg intramuscular, in oil A (sesame oil)
[14] = 80 μmole/Kg intramuscular, in oil A (sesame oil)
[15] = 160 μmole/Kg intramuscular, in oil A (sesame oil)
[16] = 240 μmole/Kg intramuscular, in oil B (soybean oil)
[17] = 240 μmole/Kg intramuscular, in oil C (peanut oil)
[18] = 240 μmole/Kg intramuscular, in oil D (castor oil)
[19] = 240 μmole/Kg intramuscular, in oil E (cotton seed oil)
[20] = intramuscular injection of 24-240 μmole, in 0.9% saline

**Q.** What does the source list for `O=C(c1ccccc1)c1ccc2n1CCC2C(=O)O` (racemic) [Ketorolac, (±)-5-benzoyl-2,3-dihydro-1H-pyrrolizine-1-carboxylic acid]?
**A.** analgesic effect [1, 12]: failed to provide significant analgesic and antiinflamatory effects; solubility in sesame oil (Solubility in sesame oil): 10.6 mM (≈ 2710 µg/mL); solubility (Solubility in sesame oil; oil or lipid): 2700 µg/mL (≈ 10.6 mM); anti-inflammatory effect [2, 12]: failed to provide significant analgesic and antiinflamatory effects; mean terminal elimination half-life (T1/2β) ([3]; healthy volunteers): about 5 hours; apparent volume of distribution (Vd) ([3]; in vivo): < 0.3 L/kg; odds ratio (OR), risk of gastrointestinal bleeding compared to opioids [4]: 1.30; odds ratio (OR), risk of operative site bleeding compared to opioids [4]: 1.02; bound to plasma proteins [5]: > 99%

**Q.** Which “enzymatic hydrolysis to liberate the parent drug” value [6] does the source give for `CN(C)C(=O)COC(=O)C1CCn2c(C(=O)c3ccccc3)ccc21` (centres unmarked) [KDAE, ketorolac [(N,N-dimethylamino)carbonyl]methyl ester] here?
**A.** faster enzymatic hydrolysis

**Q.** What about the skin flux [7] of the same compound?
**A.** relatively higher skin flux

**Q.** Which “Analgesic duration” value [1, 13] does the source give for `O=C(c1ccccc1)c1ccc2n1CCC2C(=O)OCc1ccccc1` (centres unmarked) [Ketorolac benzyl ester] here?
**A.** 56 h

**Q.** And the “Anti-inflammatory duration” value [2, 13]?
**A.** 56 h

**Q.** Which results are given for `CCCCCCCCCCCCCCCCOC(=O)C1CCn2c(C(=O)c3ccccc3)ccc21` (centres unmarked) [Ketorolac cetyl ester]?
**A.** Analgesic duration [1, 13]: 74 h; Anti-inflammatory duration [2, 13]: 78 h

**Q.** Which results are given for `CCCCCCCCCCOC(=O)C1CCn2c(C(=O)c3ccccc3)ccc21` (centres unmarked) [Ketorolac decyl ester]?
**A.** Analgesic duration [1, 13]: 76 h; Anti-inflammatory duration [2, 13]: 76 h

**Q.** What does the source list for `CCCCCCCOC(=O)C1CCn2c(C(=O)c3ccccc3)ccc21` (centres unmarked) [Ketorolac heptyl ester]?
**A.** Analgesic duration [1, 13]: 74 h; Anti-inflammatory duration [2, 13]: 74 h

**Q.** Which results are given for `CCCCCOC(=O)C1CCn2c(C(=O)c3ccccc3)ccc21` (centres unmarked) [Ketorolac pentyl ester]?
**A.** Analgesic duration [1, 13]: 56 h; Anti-inflammatory duration [2, 13]: 56 h

**Q.** With `CCCOC(=O)C1CCn2c(C(=O)c3ccccc3)ccc21` (centres unmarked) [Ketorolac propyl ester] as the compound, how does the “Analgesic duration” value [1, 14] read?
**A.** 6 h

**Q.** What about the “Analgesic duration” value [1, 15] of the same compound?
**A.** 28 h

**Q.** What about the “Analgesic duration” value [1, 13] of the same compound?
**A.** 54 h

**Q.** And the “Analgesic duration (h)” value [1, 16]?
**A.** 56, 56 h

**Q.** And the “Analgesic duration (h)” value [1, 17]?
**A.** 56, 56 h

**Q.** And the “Analgesic duration” value [1, 18]?
**A.** 56 h

**Q.** What about the “Analgesic duration” value [1, 19] of the same compound?
**A.** 78 h

**Q.** What about the “Anti-inflammatory duration” value [2, 14] of the same compound?
**A.** 6 h

**Q.** And the “Anti-inflammatory duration” value [2, 15]?
**A.** 30 h

**Q.** And the “Anti-inflammatory duration” value [2, 13]?
**A.** 54 h

**Q.** What about the “Anti-inflammatory duration” value [2, 16] of the same compound?
**A.** 54 h

**Q.** What about the “Anti-inflammatory duration” value [2, 17] of the same compound?
**A.** 56 h

**Q.** What about the “Anti-inflammatory duration” value [2, 18] of the same compound?
**A.** 56 h

**Q.** What about the “Anti-inflammatory duration” value [2, 19] of the same compound?
**A.** 78 h

**Q.** And the “permeation rate of ketorolac in rat skin (maximum)” value [8]?
**A.** 46.61 nmole/cm^2/h

**Q.** With `CC(C)(C)OC(=O)C1CCn2c(C(=O)c3ccccc3)ccc21` (centres unmarked) [Ketorolac tert-butyl ester] as the compound, how does the “Analgesic duration” value [1, 13] read?
**A.** 56 h

**Q.** What about the “Anti-inflammatory duration” value [2, 13] of the same compound?
**A.** 56 h

**Q.** Which “Analgesic duration” value ([1]; 24 μmole/Kg intramuscular, in water) does the source give for `NC(CO)(CO)CO.O=C(c1ccccc1)c1ccc2n1CCC2C(=O)O` (centres unmarked) [Ketorolac tromethamine, ketorolac tromethamine, reference compound] here?
**A.** 6 h

**Q.** What about the “Analgesic duration” value ([1]; 80 μmole/Kg intramuscular, in water) of the same compound?
**A.** 6 h

**Q.** What about the “Analgesic duration” value ([1]; 240 μmole/Kg intramuscular, in water) of the same compound?
**A.** 8 h

**Q.** What about the duration of action ([1]; intramuscular injection 30 mg/kg in rats) of the same compound?
**A.** 6 to 8 h

**Q.** What about the “duration of significant analgesic effects (pain threshold of paw)” value [1, 20] of the same compound?
**A.** 6 to 8 h

**Q.** What about the “Anti-inflammatory duration (h)” value ([9]; 24 μmole/Kg intramuscular) of the same compound?
**A.** 8, 8, 8 h

**Q.** And the “Anti-inflammatory duration (h)” value ([9]; 80 μmole/Kg intramuscular)?
**A.** 8, 8, 8 h

**Q.** And the “Anti-inflammatory duration (h)” value ([9]; 240 μmole/Kg intramuscular)?
**A.** 8, 8, 8 h

**Q.** What about the “duration of significant anti-inflammatory effects (paw swelling)” value [9, 20] of the same compound?
**A.** 8 h

**Q.** And the duration of action [10]?
**A.** 6 to 8 h

**Q.** For `CCN(CC)CCOC(=O)C1CCn2c(C(=O)c3ccccc3)ccc21.O=C(O)/C=C\C(=O)O` (centres unmarked) [maleate salt of 2-(diethylamino)ethyl ester of ketorolac], which “undesired side effects (gastrointestinal irritation and ulceration)” value [11] is on record?
**A.** less undesired side effects

**Q.** With `O=C(O)C(=O)O.O=C(c1ccccc1)c1ccc2n1CCC2C(=O)OCCN1CCCC1` (centres unmarked) [oxalate salt of 2-(1-pyrrolidinyl)ethylester of ketorolac] as the compound, how does the “undesired side effects (gastrointestinal irritation and ulceration)” value [11] read?
**A.** less undesired side effects
